The results in this text go back to paper PMC10277484, “Bioactivity and nutritional quality of nutgall (Rhus semialata Murray), an underutilized fruit of Manipur” (Frontiers in Nutrition, 2023).

A short description of test [1]: ABTS radical scavenging assay. The class given is biochemical. Particulars: 30 min in the dark, 734 nm. The method, then: ABTS radical scavenging activity was performed as described by Singh et al. ([26]). The reaction mixture containing 0.1 mL of extract was mixed with 1.9 mL ABTS radical ([…] = 1.0 ± 0.01) then incubated for 30 min in the dark, and the absorbance was read at 734 nm. RSA and IC50 of the extract were calculated as described above.

Test [2] can be described thus: DPPH radical scavenging assay. The class given is biochemical. The note with it: 30 min in the dark, 517 nm. The method, then:
0.1 mL of each of the five different concentrations of the extract was mixed with 1.9 mL DPPH reagent prepared in methanol (A517 = 1.1 + 0.01). The mixture was incubated for 30 min in the dark and then read at 517 nm. The radical scavenging activity (RSA) of each extract was calculated as follows ([26]).
RSA%=(Acontrol−Asample)/AcontrolX100%
From the RSA%, 50 inhibitory concentration (IC50) was calculated and expressed in μg/mL.

Another test concerns Staphylococcus aureus. As to the kind of experiment: Kirby-Bauer disk diffusion antibacterial assay. The class given is cell-based. The note with it: 6 mm disc, extract 0.5 mg, chloramphenicol 0.025 mg, 24 h 37°C. The method, then: (§1) The Kirby-Bauer disk diffusion method ([31]) was used for the evaluation of the antibacterial activity of MExt. Four test organisms, viz.; Salmonella typhimurium (ATTC13311), Escherichia coli (MTCC 739), Bacillus subtilis (MTTCC 121), Staphylococcus aureus (ATCC 1026), were grown in Mueller-Hinton broth (MHB) at 37°C and 160 rpm and brought to its exponential phase. The sample was prepared by dissolving the MExt in 50% DMSO (at 25 mg/mL w/v concentration) and filtering through a (0.22 μm) syringe filter. Hundred microliter of each bacterial strain, equivalent to 0.5 McFarland turbidity were spread over sterile Mueller-Hinton agar (MHA) plate using a sterile swab. A 20 μL sample (0.5 mg) impregnated in a 6 mm sterile disc was seeded on the freshly spread MHA plates and incubated for 24 h at 37°C. Chloramphenicol 0.025 mg was used as a positive control. One reagent control containing the buffer and solvent used was also included in the experiment. The zone of inhibition was recorded using a Vernier caliper.
On the technique in general: Agar diffusion results depend on both activity and mobility in agar.

A further test deals with Escherichia coli. Briefly: Kirby-Bauer disk diffusion antibacterial assay. The class given is cell-based. The note with it: 6 mm disc, extract 0.5 mg, chloramphenicol 0.025 mg, 24 h 37°C, read-out: Inhibition zone, Eschericia coli. The method, then:
as §1

For another test, the system named is Bacillus subtilis. Briefly: Kirby-Bauer disk diffusion antibacterial assay. The note with it: 6 mm disc, extract 0.5 mg, chloramphenicol 0.025 mg, 24 h 37°C. The class given is cell-based. The method, then: as §1
For a further test, the system named is Salmonella typhi. Briefly: Kirby-Bauer disk diffusion antibacterial assay. The class given is cell-based. Particulars: Salmonella enterica, 24 h, read-out: Inhibition zone, Salmonella typhi.
For test [3], the system named is HeLa (human cervical cancer cell line). Briefly: In vitro cytotoxicity, Sulforhodamine B (SRB) assay. The class given is cell-based. The note with it: 48 h, read-out: IC50 against HeLa cells. The method, then:
The cytotoxic activity of MExt was investigated using Sulforhodamine B colorimetric (SRB) assay against HeLa (human cervical cancer cell line). The cell was maintained in a Dulbecco’s Modified Eagle Medium (DMEM). […] The monolayer cells were then fixed with 10% Trichloroacetic acid (TCA) for 1 h at […] followed by washing with water. After drying, the cell plates were stained with SRB for 30 min and then washed with 1% acetic acid. The SRB dye bound to the protein was then dissolved by adding 10 mM Tris base (pH 10.5). The SRB dye released was quantified by taking absorbance at 510 nm in Varioskan Flash Multimode Reader (Thermo Fisher Scientific, United States) ([32]).

Consider `O=C1O[C@H]([C@@H](O)CO)C(O)=C1O` [Ascorbic acid], for which the results for the “ABTS (IC50)” value in test [1] and in test [1] (listed as Vitamin C) were 5.4 µg/mL and 3.00 ± 0.40 µg/mL, respectively. Moreover, the figures for the “DPPH (IC50)” value in test [2] and in test [2] (listed as Vitamin C) were 3 µg/mL and 5.40 ± 0.30 µg/mL, respectively.

Take `O=C(N[C@H](CO)[C@H](O)c1ccc([N+](=O)[O-])cc1)C(Cl)Cl` [Chloramphenicol]: the zone of inhibition at 25 µg/disc in the test with Staphylococcus aureus was found to be 29 ± 1 mm; in the test with Escherichia coli it was 28 ± 2.2 mm; with Bacillus subtilis, 30.2 ± 1.6 mm; in the test with Salmonella typhi, 30 ± 2 mm.

With `COc1cccc2c1C(=O)c1c(O)c3c(c(O)c1C2=O)C[C@@](O)(C(=O)CO)C[C@@H]3O[C@H]1C[C@H](N)[C@H](O)[C@H](C)O1` [Doxorubicin], in test [3], the IC50 – broadly, the concentration that inhibits the measured activity by half – was < 5 µg/mL.
